Results on 16 compounds are retold here after patent US20070027175A1, “Antineoplastic activities of ellipticine and its derivatives” (priority 2005, published 2007).

The subject of one test is NCI-60 cancer panel. The conditions noted are these: average across the cell lines of the concentration at which growth is inhibited 50%; unit in the High Conc. footnote; cited from earlier work.
Another test deals with Ark myeloma cell line. As to the kind of experiment: CellTiter-Glo luminescent cell viability assay, Ark. The test is classed as cell-based, human. On the set-up: unit of the concentration uncertain. The method, then:
(§1) The dosage of each derivative was set at 2, 0.2 and 0.02 mM. A cell culture medium control and 0.5% DMSO control was maintained in each experiment. The cell viability was tested each day over a period of five days using the CellTiter-Glo luminescent cell viability assay kit from Promega Co.
(§2) Cell Titer-Glo luminescent cell viability assay kit from Promega Co (Madison, Wis.) was used to determine cell growth inhibition by the various compounds tested. The kit determines cell viability by quantifying the amount of ATP present in the cell culture medium. Presence of ATP signals the presence of metabolically active cells (3). The intensity of luminescence was measured by a computerized luminometer (Promega, Co. Madison, Wis.). Each well was read five times within 30 minutes of adding Cell Titer-Glo reagent mixture.
(§3) Cells were contacted with the antineoplastic agents in ninety six well culture plates. The concentration of each neoplastic agent was maintained a constant. A cell culture medium control and 0.5% DMSO control were maintained in each set of experiments. The cell viability was tested every day using the CellTiter-Glo luminescent cell viability kit from Promega Co. (Madison, Wis.) for a period of five days.
On the technique in general: In ATP-based viability assays light output follows the ATP content of the culture.

A further test relates to CAG myeloma cell line. As to the kind of experiment: CellTiter-Glo luminescent cell viability assay, CAG. The class given is cell-based, human. Also noted: unit of the concentration uncertain. The method, then:
as §1, §2, §3

Test [1] concerns RPMI8226 myeloma cell line. As to the kind of experiment: CellTiter-Glo luminescent cell viability assay, RPMI8226. The test is classed as cell-based, human. Also noted: unit of the concentration uncertain. The method, then: as §1
Cell Titer-Glo luminescent cell viability assay kit from Promega Co (Madison, Wis.) was used to determine cell growth inhibition by the various compounds tested. The kit determines cell viability by quantifying the amount of ATP present in the cell culture medium. Presence of ATP signals the presence of metabolically active cells (3). The intensity of luminescence was measured by a computerized luminometer (Promega, Co. Madison, Wis.). Each well was read five times within 30 minutes of adding Cell Titer-Glo reagent mixture. […]

Another test has as its system U266 myeloma cell line. Also noted: cell viability (CellTiter-Glo luminescent assay): dose or concentration left out as unconfirmed. The conditions noted are these: U266. The method, then:
as §1
U266 cell line was one of 12 myeloma cell lines used in screening of anti-myeloma agents. In FIG. 10A, cells were treated with 14 ellipticine derivatives (0.5 mM) obtained from the DTP; control cells were untreated. Ellipticine derivatives are coded with NSC identifiers. For 5 days, cell viability was measured every 24 hours using CellTiter-Glo Luminescent Assay. […] In FIG. 10B, U266 cells, along with six other myeloma cell lines, were co-cultured in direct contact with human fetal bone mesenchymal cells and treated with EPED3 (0.5 mM and 2 mM) or Velcade (0.5 mM); control cells were untreated. Cell proliferation was assessed by MTT assay every 24 hours for 5 days. […] Error bars indicate standard deviation.
as §2, §3

In test [2] the test system is myeloma cell lines ARK, KMS11, RPMI 8226, and U266. The test is described as follows: In vitro screening of DTP compounds on myeloma cell lines (CellTiter-Glo). The test is classed as cell-based, human. The method, then:
Eight myeloma cell lines were contacted with the antineoplastic agents to be tested in ninety six well culture plates. […]
Myeloma cell lines were maintained at >90% viability at 37° C. and 5% CO2. Cells were diluted to 20,000 cells/ml in fresh medium. A 50-μl aliquot of cell suspension was seeded in 96-well tissue culture plates to final cell counts of 1,000 cells/well. All compounds obtained from NCI's Developmental Therapeutics Program (DTP compounds) were dissolved in 100% dimethylsulfoxide (DMSO) (Sigma-Aldrich, St. Louis, Mo.) at 1 mg/ml and further diluted in fresh medium to 1 μg/ml. Each compound (50-μl aliquots) was distributed to a well containing 1,000 myeloma cells. Each plate included controls with addition of only medium or only DMSO (0.5% final concentration). All experiments were conducted in triplicate.
Using CellTiter-Glo Luminescent Assay kit (Promega, Madison, Wis.) according to manufacturer's instructions, cell viability was assayed every 24 hours after addition of DTP compound for 5 days. Briefly, the CellTiter-Glo substrate was dissolved in buffer, and 100 μl was added to each well. […] The statistic sampling distribution for each compound per cell line was based on sample of n=15 measurements.
Other ellipticine derivatives from the DTP (at 0.5 mM final concentration) were used to screen the same four myeloma cell lines.

Read-outs that look alike come from different tables or passages of the source.

Consider `C=C1C(OC(=O)/C=C/c2ccccc2)CC(OC(C)=O)C2(C)C1CC1CC(OC(C)=O)C(C)=C(C(OC(C)=O)C2OC(C)=O)C1(C)C` (stereo not drawn) [NSC 636859, Cuspidatin C], for which the “Mean GI50” value in the test on NCI-60 cancer panel is −4.46 log^10 molar.

As to `O=C1/C(=C/C=C/c2ccccc2)CCC1CNc1ccccc1` (stereo not drawn) [NSC 661238], the “Mean GI50” value in the test with NCI-60 cancer panel is given as −4.47 log^10 molar.

In the case of `COc1ccc2[nH]c3c(C)c4cc[n+](COC(=O)c5ccccc5)cc4c(C)c3c2c1` [NSC 632620], the “Mean GI50” value in the test on NCI-60 cancer panel was −6.52 log^10 molar.

For the compound `Nc1ncnc2c1ncn2[C@@H]1C=C(CO)[C@@H](O)[C@H]1O` [NSC 316458, Neplanocin A], in the test on NCI-60 cancer panel, the “Mean GI50” value is given as −5.43 log^10 molar.

For the compound `Cc1cc2[nH]c3c(C#N)c(-c4ccccc4)c(N=Nc4cccc(C(F)(F)F)c4)c(=O)n3c2cc1C` [NSC 699959], in the test on NCI-60 cancer panel, the “Mean GI50” value is on record as −4.53 log^10 molar.

Regarding `COc1ccc2[nH]c3c(C)c4ccncc4c(C)c3c2c1` [NSC 69187, ellipticine-9-methoxy-], the “cell viability (CellTiter-Glo luminescent assay)” value is listed as 119,617 in the test on Ark myeloma cell line (0.02 (unit uncertain), Day 1); 244,779 with Ark myeloma cell line (0.02 (unit uncertain), Day 2); 371,712 in the test on Ark myeloma cell line (0.02 (unit uncertain), Day 3); 824,251 in the test on Ark myeloma cell line (0.02 (unit uncertain), Day 4); 1,347,042 in the test with Ark myeloma cell line (0.02 (unit uncertain), Day 5); 92,678 in the test on Ark myeloma cell line (0.2 (unit uncertain), Day 1). The “cell viability (CellTiter-Glo luminescent assay)” value in the test on Ark myeloma cell line (0.2 (unit uncertain), Day 2) is 208,050; with Ark myeloma cell line (0.2 (unit uncertain), Day 3), 256,789; in the test on Ark myeloma cell line (0.2 (unit uncertain), Day 4) it was 506,725; with Ark myeloma cell line (0.2 (unit uncertain), Day 5), 826,957; in the test with Ark myeloma cell line (2 (unit uncertain), Day 1), 14,932; with Ark myeloma cell line (2 (unit uncertain), Day 2) it was 815. Further, the “cell viability (CellTiter-Glo luminescent assay)” value in the test with Ark myeloma cell line (2 (unit uncertain), Day 3) was 289; with Ark myeloma cell line (2 (unit uncertain), Day 4), 463; with Ark myeloma cell line (2 (unit uncertain), Day 5), 375; in the test with CAG myeloma cell line (0.02 (unit uncertain), Day 1), 188,754; with CAG myeloma cell line (0.02 (unit uncertain), Day 2) it was 552,402; in the test with CAG myeloma cell line (0.02 (unit uncertain), Day 3) it was 805,110. Moreover, the “cell viability (CellTiter-Glo luminescent assay)” value with CAG myeloma cell line (0.02 (unit uncertain), Day 4) was 2,582,505; in the test with CAG myeloma cell line (0.02 (unit uncertain), Day 5), 4,299,468; in the test on CAG myeloma cell line (0.2 (unit uncertain), Day 1), 164,436; in the test on CAG myeloma cell line (0.2 (unit uncertain), Day 2), 358,735; in the test on CAG myeloma cell line (0.2 (unit uncertain), Day 3) it was 511,726; in the test on CAG myeloma cell line (0.2 (unit uncertain), Day 4), 1,187,656. The “cell viability (CellTiter-Glo luminescent assay)” value in the test with CAG myeloma cell line (0.2 (unit uncertain), Day 5) is given as 1,595,148; in the test on CAG myeloma cell line (2 (unit uncertain), Day 1), 88,285; in the test on CAG myeloma cell line (2 (unit uncertain), Day 2) it was 58,508; in the test with CAG myeloma cell line (2 (unit uncertain), Day 3), 17,247; with CAG myeloma cell line (2 (unit uncertain), Day 4) it was 9,111; in the test with CAG myeloma cell line (2 (unit uncertain), Day 5), 1,745. For the same compound, the “cell viability (CellTiter-Glo luminescent assay)” value in test [1] (0.02 (unit uncertain), Day 1) is 103,366; in test [1] (0.02 (unit uncertain), Day 2) it was 238,331; in test [1] (0.02 (unit uncertain), Day 3), 411,171; in test [1] (0.02 (unit uncertain), Day 4), 869,367; in test [1] (0.02 (unit uncertain), Day 5) it was 1,011,078; in test [1] (0.2 (unit uncertain), Day 1) it was 82,834. Besides, the “cell viability (CellTiter-Glo luminescent assay)” value is on record as 148,198 in test [1] (0.2 (unit uncertain), Day 2); 216,515 in test [1] (0.2 (unit uncertain), Day 3); 311,641 in test [1] (0.2 (unit uncertain), Day 4); 379,475 in test [1] (0.2 (unit uncertain), Day 5); 21,912 in test [1] (2 (unit uncertain), Day 1); 2,688 in test [1] (2 (unit uncertain), Day 2). Besides, the “cell viability (CellTiter-Glo luminescent assay)” value is 820 in test [1] (2 (unit uncertain), Day 3); 601 in test [1] (2 (unit uncertain), Day 4); 213 in test [1] (2 (unit uncertain), Day 5); 30,188 with U266 myeloma cell line (0.02, Day 1); 46,889 with U266 myeloma cell line (0.02, Day 2); 63,864 in the test on U266 myeloma cell line (0.02, Day 3). In addition, the “cell viability (CellTiter-Glo luminescent assay)” value is given as 112,366 with U266 myeloma cell line (0.02, Day 4); 145,073 in the test on U266 myeloma cell line (0.02, Day 5); 24,729 in the test with U266 myeloma cell line (0.2, Day 1); 38,799 in the test on U266 myeloma cell line (0.2, Day 2); 45,134 in the test on U266 myeloma cell line (0.2, Day 3); 69,867 in the test on U266 myeloma cell line (0.2, Day 4). The “cell viability (CellTiter-Glo luminescent assay)” value is 90,555 with U266 myeloma cell line (0.2, Day 5); 7,818 in the test on U266 myeloma cell line (2, Day 1); 3,633 in the test on U266 myeloma cell line (2, Day 2); 1,048 in the test on U266 myeloma cell line (2, Day 3); 628 in the test on U266 myeloma cell line (2, Day 4); 144 in the test on U266 myeloma cell line (2, Day 5). In addition, in test [2] (0.5 mg/ml, every 24 hours over 5 days), the “inhibition of cell viability in four myeloma cell lines” value is on record as “most significantly inhibited cell viability”. Further, the “effective invitro dosage (cell growth inhibition)” value in test [2] (myeloma cell lines) is 0.2 µM. Further, the “Mean GI50” value in the test with NCI-60 cancer panel is given as −6.35 log^10 molar.

`CSc1nc[nH]c1C(N)=S` [NSC 684041]: the “Mean GI50” value in the test on NCI-60 cancer panel is listed as −4.11 log^10 molar.

Consider `CNC(=S)NC(=S)N(C)C` [NSC 622693], for which, in the test on NCI-60 cancer panel, the “Mean GI50” value is recorded as −4.53 log^10 molar.

Consider `C#CCN(N=O)C(=O)NCCCC(NC(C)=O)C(=O)NCc1ccccc1` (stereo not drawn) [NSC 645583], for which, in the test on NCI-60 cancer panel, the “Mean GI50” value was −4.17 log^10 molar.

Consider `C[C@@H]1C[C@@H]2OC(=O)[C@]3(C)[C@H]2[C@@H](OC3(C)O)[C@]2(C)C(=O)C=C[C@@H]12` (stereo partly drawn) [NSC 19942, Tenulin], for which the “Mean GI50” value in the test on NCI-60 cancer panel is −4.68 log^10 molar.

Take `O=C1N(c2ccc(Cl)cc2)C(=O)C2(SC=NN2Cc2ccccc2)N1c1ccc(Cl)cc1` (stereo not drawn) [NSC 630740]: the “Mean GI50” value in the test with NCI-60 cancer panel is given as −4.26 log^10 molar.

As to `CCCCCCC(=O)OC[n+]1ccc2c(C)c3[nH]c4ccccc4c3c(C)c2c1` [NSC 637132], the “Mean GI50” value with NCI-60 cancer panel is listed as −6.09 log^10 molar.

In the case of `CN(C)CC1CCCCCC(Br)C1=O.O=C(O)C(=O)O` (stereo not drawn) [NSC 130789], the “Mean GI50” value in the test on NCI-60 cancer panel is −4.96 log^10 molar.

Consider `O=C(/C=C/c1ccc(Cl)c(Cl)c1)c1ccc(Cl)cc1Cl` [NSC 640531], for which the “Mean GI50” value in the test with NCI-60 cancer panel was −4.99 log^10 molar.

As to `Cc1ccc(S(=O)(=O)N=NC=C2c3ccccc3N(O)c3ccccc32)cc1` [NSC 627891], the “Mean GI50” value in the test with NCI-60 cancer panel is reported as −5.43 log^10 molar.

As for `CCCCC(=O)OC[n+]1ccc2c(C)c3[nH]c4ccc(OC)cc4c3c(C)c2c1.[I-]` [NSC 637126], the “Mean GI50” value in the test on NCI-60 cancer panel is −6.40 log^10 molar.
